Activity calls are given as the source filed them. The calls are words filed in the database; no cut-off is given here.
Columns and labels:
Heart [1] = assay: Cardioprotective activity in isolated Langendorff ischemia-reperfused Swiss Webster mouse heart assessed as prolongation of time to ischemic contracture; assay type: functional
Heart [2] = assay: Cardioprotective activity in isolated Langendorff ischemia-reperfused Swiss Webster mouse heart assessed as total tissue necrotic area; assay type: functional
Heart [3] = assay: Cardioprotective activity in isolated Langendorff ischemia-reperfused Swiss Webster mouse heart assessed as increase in functional recovery of contractility; assay type: tissue-based

Row | Compound | Activity (Heart [1]) | Activity (Heart [2]) | Activity (Heart [3])
1 | Nc1ncnc2c1ncn2[C@@H]1O[C@H](CO)[C@@H](O)[C@H]1O [ADENOSINE] | 13.6 min | 11.5% | –
2 | CNC(=O)[C@@H]1O[C@H](n2cnc3c(NC)ncnc32)[C@@H](O)[C@H]1N | inactive | inactive | inactive
3 | CN(C)c1ncnc2c1ncn2[C@H]1O[C@@H](CO)[C@H](N)[C@@H]1O | 14.5 min | 19.1% | Active

— ChEMBL document CHEMBL1152499, “Novel l-adenosine analogs as cardioprotective agents” (2009)
